target: T1, WT/R232 STING protein (Homo sapiens, UniProt Q86WV6, H232R); experiment: Luciferase reporter assay in HEK293T-hSTING-Luciferase cells (R232); assay type: cell-based; details: 20 hr stimulation, EC50 range
T1 construct: host or cells: HEK293T
Excerpt: • a) Stable STING expressing cells—Stable HEK293T STING-expressing cell lines were generated using plasmids purchased from Invivogen, CA, USA, that contain STING cDNA cloned into the pUNO-1 vector under hEF1-HTLV promoter and containing the Blasticidin selection cassette. The plasmids hSTING (R232), hSTING (H232), hSTING (HAQ) were directly procured from Invivogen while hSTING (AQ) and hSTING (Q) were derived from hSTING (HAQ) and hSTING (R232) plasmids respectively by using a PCR based site directed mutagenesis method. These vectors were individually transfected into HEK293T cells using Lipofectamine (Invitrogen) and transfected cells were selected under Blasticidin selection. These transfected cells were further subjected to clonal selection using the limiting dilution method to obtain clonally pure populations of HEK cells transfected with each of the above mentioned human STING variants. Only those clones were selected in which ligand independent activation of STING was minimal. • b) Stable Luciferase reporter gene expressing cells—Stable HEK293T Luciferase reporter gene expressing cell lines were generated using pCDNA4 plasmids under an IRF-inducible promoter. This promoter is comprised of five tandem interferon-stimulated response elements (ISRE) fused to an ISG54 minimal promoter. This vector was transfected into HEK293T cells using Lipofectamine (Invitrogen) and transfected cells were selected under Zeocin selection. These transfected cells were further subjected to clonal selection using the limiting dilution method to obtain clonally pure populations of HEK cells transfected the Luciferase reporter construct. Only those clones were selected in which ligand independent induction of luciferase was minimal.
5×10^5 clonally selected HEK293T-hSTING-Luciferase cells were seeded in 384-well plates in growth medium and stimulated with novel compounds. After 20 hr of stimulation supernatant were removed and secretary reporter gene activity were measured using the Quanti-Luc detection system (Invivogen) on a Spectramax i3X luminometer.
All compounds were first tested in a primary screen using WT/R232 STING protein to obtain a ‘fold-induction’ over baseline levels of protein activity.

T1 sequence (Q86WV6 whole entry H232R): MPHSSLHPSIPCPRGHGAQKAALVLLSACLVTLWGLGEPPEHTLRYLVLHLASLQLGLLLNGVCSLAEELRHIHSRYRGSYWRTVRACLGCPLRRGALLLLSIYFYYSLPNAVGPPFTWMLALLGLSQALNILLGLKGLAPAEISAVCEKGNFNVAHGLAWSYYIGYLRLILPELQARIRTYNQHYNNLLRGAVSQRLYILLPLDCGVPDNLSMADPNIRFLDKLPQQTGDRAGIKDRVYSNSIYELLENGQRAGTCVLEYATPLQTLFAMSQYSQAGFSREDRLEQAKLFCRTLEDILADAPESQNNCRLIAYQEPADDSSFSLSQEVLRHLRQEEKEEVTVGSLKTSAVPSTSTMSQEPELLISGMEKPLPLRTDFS

| EC50 | SMILES |
| --- | --- |
| > 10 µM | CC1(CCN)C(=O)N(Cc2cc(F)cc(F)c2)c2cc(C(=O)NCc3c(F)cc(F)cc3F)ccc21 (stereo not drawn) [Example 173, 3-(2-aminoethyl)-1-(3,5-difluorobenzyl)-3-methyl-2-oxo-N-(2,4,6-trifluorobenzyl)indoline-6-carboxamide] |
| > 10 µM | CC1(C)C(=O)N(Cc2ccc(C(N)=O)cc2)c2cc(C(=O)NCc3c(F)cc(F)cc3F)ccc21 [Example 120, 1-(4-carbamoylbenzyl)-3,3-dimethyl-2-oxo-N-(2,4,6-trifluorobenzyl)indoline-6-carboxamide] |
| 1 to 10 µM | CC1(CC#N)C(=O)N(Cc2cc(F)cc(F)c2)c2cc(C(=O)NCc3c(F)cc(F)cc3F)ccc21 (stereo not drawn) [Example 178, 3-(cyanomethyl)-1-(3,5-difluorobenzyl)-3-methyl-2-oxo-N-(2,4,6-trifluorobenzyl)indoline-6-carboxamide] |
| 1 to 10 µM | Cc1ccc(CNC(=O)c2ccc3c(c2)N(Cc2c(F)cccc2Cl)C(=O)C3(C)C)s1 [Example 24, 1-(2-chloro-6-fluorobenzyl)-3,3-dimethyl-N-((5-methylthiophen-2-yl)methyl)-2-oxoindoline-6-carboxamide] |
| 1 to 10 µM | CC1(C)C(=O)N(Cc2ccnc(F)c2)c2cc(C(=O)NCc3c(F)cc(F)cc3F)ccc21 [Example 49, 1-((2-fluoropyridin-4-yl)methyl)-3,3-dimethyl-2-oxo-N-(2,4,6-trifluorobenzyl)indoline-6-carboxamide] |
| > 10 µM | CC1(O)C(=O)N(Cc2c(F)cccc2Cl)c2cc(C(=O)NCc3c(F)cc(F)cc3F)ccc21 (stereo not drawn) [Example 143, 1-(2-Chloro-6-fluorobenzyl)-3-hydroxy-3-methyl-2-oxo-N-(2,4,6-trifluorobenzyl)indoline-6-carboxamide] |
| > 10 µM | Cc1ccnc(CNC(=O)c2ccc3c(c2)N(Cc2c(F)cccc2Cl)C(=O)C3(C)C)c1 [Example 32, 1-(2-chloro-6-fluorobenzyl)-3,3-dimethyl-N-((4-methylpyridin-2-yl)methyl)-2-oxoindoline-6-carboxamide] |
| 1 to 10 µM | CC1(C)C(=O)N(Cc2ccc(F)cc2)c2cc(C(=O)NCc3ccco3)ccc21 [Example 41, 1-(4-fluorobenzyl)-N-(furan-2-ylmethyl)-3,3-dimethyl-2-oxoindoline-6-carboxamide] |
| > 10 µM | CC1(CN)C(=O)N(Cc2cc(F)cc(F)c2)c2cc(C(=O)NCc3c(F)cc(F)cc3F)ccc21 (stereo not drawn) [Example 172, 3-(aminomethyl)-1-(3,5-difluorobenzyl)-3-methyl-2-oxo-N-(2,4,6-trifluorobenzyl)indoline-6-carboxamide] |
| > 10 µM | CC1(C)C(=O)N(Cc2cc(F)cc(F)c2)c2nc(C(=O)NCCc3c(F)cc(F)cc3F)ccc21 [Example 190, 1-(3,5-difluorobenzyl)-3,3-dimethyl-2-oxo-N-(2,4,6-trifluorophenethyl)-2,3-dihydro-1H-pyrrolo[2,3-b]pyridine-6-carboxamide] |
| 1 to 10 µM | Cn1nc(C(F)(F)F)cc1CN1C(=O)C(C)(C)c2ccc(C(=O)NCc3c(F)cc(F)cc3F)cc21 [Example 113, 3,3-dimethyl-1-((1-methyl-3-(trifluoromethyl)-1H-pyrazol-5-yl)methyl)-2-oxo-N-(2,4,6-trifluorobenzyl)indoline-6-carboxamide] |
| 1 to 10 µM | Cc1cc(CN2C(=O)C(C)(C)c3ccc(C(=O)NCc4c(F)cc(F)cc4F)cc32)cc(C(F)(F)F)c1 [Example 15, 3,3-dimethyl-1-(3-methyl-5-(trifluoromethyl)benzyl)-2-oxo-N-(2,4,6-trifluorobenzyl)indoline-6-carboxamide] |
| > 10 µM | CCC1(O)C(=O)N(Cc2c(F)cccc2Cl)c2cc(C(=O)NCc3c(F)cc(F)cc3F)ccc21 (stereo not drawn) [Example 158, 1-(2-chloro-6-fluorobenzyl)-3-ethyl-3-hydroxy-2-oxo-N-(2,4,6-trifluorobenzyl)indoline-6-carboxamide] |
| ≤ 1 µM | COc1cc(F)c(CN2C(=O)C(C)(C)c3ccc(C(=O)NCc4c(F)cc(F)cc4F)cc32)c(F)c1 [Example 64, 1-(2,6-difluoro-4-methoxybenzyl)-3,3-dimethyl-2-oxo-N-(2,4,6-trifluorobenzyl)indoline-6-carboxamide] |
| 1 to 10 µM | CC1(C)C(=O)N(Cc2c(F)cccc2Cl)c2cc(C(=O)NCc3ccc(N)cc3)ccc21 [Example 85, N-(4-aminobenzyl)-1-(2-chloro-6-fluorobenzyl)-3,3-dimethyl-2-oxoindoline-6-carboxamide] |
| 1 to 10 µM | Cc1cccc(F)c1CN1C(=O)C(C)(C)c2ccc(C(=O)NCc3ccc(F)cc3)nc21 [Example 194, 1-(2-fluoro-6-methylbenzyl)-N-(4-fluorobenzyl)-3,3-dimethyl-2-oxo-2,3-dihydro-1H-pyrrolo[2,3-b]pyridine-6-carboxamide] |
| 1 to 10 µM | CC1(C)C(=O)N(Cc2c(F)cccc2Cl)c2cc(C(=O)NCc3ccc4c(c3)OCO4)ccc21 [Example 86, N-(benzo[d][1,3]dioxol-5-ylmethyl)-1-(2-chloro-6-fluorobenzyl)-3,3-dimethyl-2-oxoindoline-6-carboxamide] |
| > 10 µM | Cn1c(=O)n(Cc2ccccc2Cl)c2cc(C(=O)NCc3ccco3)ccc21 [Example 202, 3-(2-chlorobenzyl)-N-(furan-2-ylmethyl)-1-methyl-2-oxo-2,3-dihydro-1H-benzo[d]imidazole-5-carboxamide] |
| > 10 µM | CC1(C)C(=O)N(Cc2cc(F)cc(F)c2)c2c1ccc(C(=O)NCc1cc3ccccc3o1)c2F [Example 34, N-(benzofuran-2-ylmethyl)-1-(3,5-difluorobenzyl)-7-fluoro-3,3-dimethyl-2-oxoindoline-6-carboxamide] |
| 1 to 10 µM | Cc1cccc(C)c1CN1C(=O)C(C)(C)c2ccc(C(=O)NCc3c(F)cc(F)cc3F)cc21 [Example 110, 1-(2,6-dimethylbenzyl)-3,3-dimethyl-2-oxo-N-(2,4,6-trifluorobenzyl)indoline-6-carboxamide] |
| > 10 µM | CC1(CCN2CCOCC2)C(=O)N(Cc2cc(F)cc(F)c2)c2cc(C(=O)NCc3c(F)cc(F)cc3F)ccc21 (stereo not drawn) [Example 171, 1-(3,5-difluorobenzyl)-3-methyl-3-(2-morpholinoethyl)-2-oxo-N-(2,4,6-trifluorobenzyl)indoline-6-carboxamide] |
| > 10 µM | Cc1ccc(CNC(=O)c2cnc3c(c2)N(Cc2c(C)cccc2F)C(=O)C3(C)C)o1 [Example 196, 1-(2-fluoro-6-methylbenzyl)-3,3-dimethyl-N-((5-methylfuran-2-yl)methyl)-2-oxo-2,3-dihydro-1H-pyrrolo[3,2-b]pyridine-6-carboxamide] |
| > 10 µM | Cc1ccc(CNC(=O)c2ccc3c(c2)N(CC(=O)c2ccccc2)C(=O)C3(C)C)o1 [Example 62, 3,3-dimethyl-N-((5-methylfuran-2-yl)methyl)-2-oxo-1-(2-oxo-2-phenylethyl)indoline-6-carboxamide] |
| > 10 µM | O=C(NCc1c(F)cc(F)cc1F)c1ccc2c(c1)N(Cc1c(F)cccc1Cl)C(=O)C2=O [Example 142, 1-(2-Chloro-6-fluorobenzyl)-2,3-dioxo-N-(2,4,6-trifluorobenzyl)indoline-6-carboxamide] |
| 1 to 10 µM | Cn1nccc1CN1C(=O)C(C)(C)c2ccc(C(=O)NCc3c(F)cc(F)cc3F)cc21 [Example 77, 3,3-dimethyl-1-((1-methyl-1H-pyrazol-5-yl)methyl)-2-oxo-N-(2,4,6-trifluorobenzyl)indoline-6-carboxamide] |
| > 10 µM | CC1(C)c2ccc(C(=O)NCc3c(F)cc(F)cc3F)cc2N(Cc2c(F)cccc2Cl)S1(=O)=O [Example 134, 1-(2-Chloro-6-fluorobenzyl)-3,3-dimethyl-N-(2,4,6-trifluorobenzyl)-1,3-dihydrobenzo[c]isothiazole-6-carboxamide 2,2-dioxide] |
| > 10 µM | O=C(NCc1ccco1)c1ccc2oc(=O)n(Cc3ccccc3F)c2c1 [Example 200, 3-(2-Fluorobenzyl)-N-(furan-2-ylmethyl)-2-oxo-2,3-dihydrobenzo[d]oxazole-5-carboxamide] |
| 1 to 10 µM | CC1(C)C(=O)N(Cc2cccc(C(F)(F)F)c2)c2cc(C(=O)NCc3c(F)cc(F)cc3F)ccc21 [Example 17, 3,3-dimethyl-2-oxo-N-(2,4,6-trifluorobenzyl)-1-(3-(trifluoromethyl)benzyl)indoline-6-carboxamide] |
| 1 to 10 µM | CNC1(C)C(=O)N(Cc2cc(F)cc(F)c2)c2cc(C(=O)NCc3c(F)cc(F)cc3F)ccc21 (stereo not drawn) [Example 145, 1-(3,5-Difluorobenzyl)-3-methyl-3-(methylamino)-2-oxo-N-(2,4,6-trifluorobenzyl)indoline-6-carboxamide] |
| > 10 µM | Cn1cccc1CNC(=O)c1ccc2c(c1)N(Cc1c(F)cccc1Cl)C(=O)C2(C)C [Example 127, 1-(2-chloro-6-fluorobenzyl)-3,3-dimethyl-N-((1-methyl-1H-pyrrol-2-yl)methyl)-2-oxoindoline-6-carboxamide] |

From patent US20200172483A1, “HETEROCYCLIC SMALL MOLECULE MODULATORS OF HUMAN STING” (Curadev Pharma Limited, priority 2017, published 2020)
